Some test systems named below: HT29 colon; A549 NSCLC; LOX IMVI melanoma; NCI-H460 lung; NCI-H522 lung; OVCAR-5 ovarian; EKVX NSCLC; MCF7 breast; DU-145 prostate; NCI/ADR-RES ovarian.
Holding throughout (assay): NCI tumour cell line growth inhibition, 48 h

SMILES strings stand for the structures.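 Growth conditions: 96-well plates. Treatment: test compound, 48 hours, 5 concentrations. Analysis: linear interpolation between bracketing concentrations; unreached endpoints set to highest concentration. At the GI50, growth is halved. TGI: concentration producing complete growth inhibition.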

In the case of `O=C(/C(=C/c1ccccc1)c1ccccc1)N1c2ccccc2CC1c1c[nH]c2ccccc12` (stereo not drawn), the TGI in the assay with HT29 colon, in the assay on A549 NSCLC, in the assay on LOX IMVI melanoma, in the assay with NCI-H460 lung, in the assay on NCI-H522 lung and with OVCAR-5 ovarian was more than 100 µM in each case. In the assay on EKVX NSCLC, this compound had a TGI of more than 100 µM.
As for `COc1ccc2c(c1)OCCC1=C2SCC2(C)CCN=C12` (stereo not drawn), the TGI in the assay on HT29 colon, in the assay with A549 NSCLC, in the assay with LOX IMVI melanoma, in the assay on NCI-H460 lung and with NCI-H522 lung was more than 100 µM in each case.
Take `C#CCN(C)C(=O)N(CC#C)N=O`: the TGI in the assay with HT29 colon, in the assay with A549 NSCLC, in the assay with LOX IMVI melanoma, in the assay with NCI-H460 lung, with NCI-H522 lung and in the assay with OVCAR-5 ovarian was more than 100 µM each time. Moreover, the TGI with EKVX NSCLC is more than 100 µM.
As for `CN(C)CCNc1nc(-c2cccs2)cc(-c2cccs2)n1`, the TGI with HT29 colon stood at 22.2 µM; with A549 NSCLC, 32.4 µM; in the assay on LOX IMVI melanoma it was 22.7 µM; in the assay with NCI-H460 lung, 18.3 µM; in the assay with OVCAR-5 ovarian it was 23.9 µM.
`C#Cc1cc2c(N)c(C(=O)c3cc(OC)c(OC)c(OC)c3)[nH]c2cc1OC`: the GI50 was 0.325 µM in the assay with MCF7 breast; 0.374 µM with HT29 colon; 0.729 µM with A549 NSCLC; 0.656 µM in the assay on LOX IMVI melanoma; 0.408 µM with NCI-H460 lung; 3.79 µM in the assay with OVCAR-5 ovarian. In the assay with DU-145 prostate, the GI50 is 1.2 µM. For the same compound, the TGI was more than 100 µM in the assay with MCF7 breast; 76.2 µM in the assay with HT29 colon; more than 100 µM in the assay on A549 NSCLC; more than 100 µM with LOX IMVI melanoma; more than 100 µM with NCI-H460 lung; more than 100 µM with OVCAR-5 ovarian. The compound also gave a TGI with DU-145 prostate of more than 100 µM.
`NS(=O)(=O)c1ccc(NC(=O)COC(=O)c2cccc3c(=O)c4ccccc4[nH]c23)cc1`: the TGI was more than 100 µM in the assay on HT29 colon; more than 100 µM in the assay on A549 NSCLC; 43 µM with LOX IMVI melanoma; more than 100 µM with NCI-H460 lung; 43.5 µM with NCI-H522 lung; more than 90 µM with OVCAR-5 ovarian. Also, in the assay with EKVX NSCLC, the TGI was more than 100 µM.
With `COc1ccc(C2=NOP(c3ccccc3)(c3ccccc3)(c3ccccc3)C2)cc1`, the TGI in the assay with HT29 colon is more than 48.5 µM; in the assay with A549 NSCLC, more than 76.1 µM; in the assay on LOX IMVI melanoma, 27.1 µM; in the assay on NCI-H460 lung it was more than 45.1 µM; in the assay on NCI-H522 lung, 25.1 µM; with OVCAR-5 ovarian, more than 75.9 µM. This compound also registered a TGI in the assay on EKVX NSCLC of more than 100 µM.
Regarding `COc1ccc2nc3cccc(C(=O)NCCN(C)C)c3nc2c1`, the TGI in the assay on HT29 colon was 6.63 µM; with A549 NSCLC, more than 100 µM; in the assay on LOX IMVI melanoma, 2.45 µM; in the assay with NCI-H522 lung, more than 100 µM; in the assay with OVCAR-5 ovarian, 6.17 µM; with EKVX NSCLC, 12.7 µM.
`CCc1nc(-n2c(-c3ccccc3)nc3ccccc3c2=O)nc(N)c1-c1ccc(Cl)cc1`: the GI50 in the assay with MCF7 breast was 80.7 µM; with HT29 colon, 6.62 µM; in the assay with A549 NSCLC, 4.98 µM; in the assay on LOX IMVI melanoma, 3.94 µM; with NCI-H460 lung, 8 µM; in the assay on NCI-H522 lung, 52.2 µM. In addition, the GI50 in the assay with OVCAR-5 ovarian is 2.86 µM; in the assay on DU-145 prostate, 72.6 µM; in the assay with EKVX NSCLC, more than 100 µM. Moreover, the TGI in the assay with MCF7 breast, in the assay on HT29 colon, with A549 NSCLC, in the assay with LOX IMVI melanoma, with NCI-H460 lung and in the assay on NCI-H522 lung was more than 100 µM throughout. Besides, the TGI in the assay with OVCAR-5 ovarian, with DU-145 prostate and with EKVX NSCLC was more than 100 µM throughout.
Turning to `C[n+]1c(N)n(C(=O)OCc2ccccc2)c(=O)c2c1ncn2C(=O)OCc1ccccc1`, the TGI in the assay with HT29 colon, with A549 NSCLC, in the assay on LOX IMVI melanoma, with NCI-H460 lung, in the assay with NCI-H522 lung and in the assay with OVCAR-5 ovarian was more than 100 µM throughout. In the assay with EKVX NSCLC, the TGI is more than 100 µM.
Turning to `CC1=C(C(=O)Nc2ccccc2)C(c2ccc(C(C)C)cc2)C(C(=O)Nc2ccccc2)=C(C)N1`, the TGI was 29.9 µM in the assay with HT29 colon; more than 100 µM with A549 NSCLC; 30.4 µM with LOX IMVI melanoma; 55.4 µM in the assay on NCI-H460 lung; 45.4 µM with NCI-H522 lung; 38.5 µM with OVCAR-5 ovarian. In the assay with EKVX NSCLC, this compound returned a TGI of more than 88 µM.
As for `Cc1ccc(NC(=O)CCC(=O)C(C#N)c2ccccc2)cc1C` (stereo not drawn), the TGI in the assay with HT29 colon, in the assay with A549 NSCLC, with LOX IMVI melanoma, in the assay on NCI-H460 lung, with NCI-H522 lung and in the assay on OVCAR-5 ovarian was more than 100 µM each time. For the same compound, the TGI with EKVX NSCLC is more than 100 µM.
As for `O=C1c2ccn(CCCCN3CCC(O)CC3)c2C(=O)c2c1c(O)c1ccccc1c2O`, the GI50 in the assay with HT29 colon is 46.9 µM; with A549 NSCLC, 26.2 µM; in the assay with LOX IMVI melanoma, 8.04 µM; in the assay with NCI-H522 lung, 2.86 µM; with OVCAR-5 ovarian, 33.4 µM; with NCI/ADR-RES ovarian, 78.8 µM. Moreover, the GI50 with DU-145 prostate is 7.98 µM; in the assay with EKVX NSCLC, 14.5 µM. In addition, the TGI was more than 100 µM in the assay on HT29 colon; 68.9 µM with A549 NSCLC; 14.4 µM in the assay with NCI-H522 lung; more than 66.8 µM in the assay with OVCAR-5 ovarian; more than 100 µM in the assay with NCI/ADR-RES ovarian; 46.5 µM with EKVX NSCLC.
`CC(=O)O[C@H]1C=CC23OC(=O)[C@]1(C)[C@H]2[C@H](C(=O)O)C12CC(=O)[C@@](CO)(CC[C@H]13)C2`: the TGI with HT29 colon, with A549 NSCLC, in the assay with LOX IMVI melanoma, in the assay with NCI-H460 lung, in the assay with NCI-H522 lung and with OVCAR-5 ovarian was more than 100 µM each time. This compound yielded a TGI in the assay with EKVX NSCLC of more than 100 µM.

The record behind these values is PubChem BioAssay (NCI).
